Results published in patent US12053459B2, “CDK2 inhibitors and methods of using the same” (Cedilla Therapeutics, Inc., priority 2021, dated 2024).

Experiments:
CDK2/Cyclin E1(14-475) [1] = biological target: T1, CDK2/Cyclin E1(14-475) (Homo sapiens, UniProt P24941); assay: HotSpot kinase inhibition assay (radiometric, Reaction Biology Corporation); assay type: biochemical; conditions: 10 μM ATP, class symbols A-D
Experimental: Inhibition of a select panel of CDK2/CCNE1 activities in the presence of compounds of the present disclosure was evaluated using the HotSpot™ assay (proprietary to Reaction Biology Corporation). In the assay, activated CDK2/Cyclin E1 catalyzes the transfer of radioactive phosphate to amino acid residues of peptide or protein substrates, which are detected radiometrically. […] Reactions contained 20 mM HEPES pH 7.5, 10 mM MgCl2, 1 mM EGTA, 2 mM DTT, 0.02% Brij35, 0.02 mg/mL BSA, 0.1 mM Na3VO4, 1% DMSO, 1.5 nM CDK2/Cyclin E1(14-475), 10 μM ATP, and 20 μM Histone H1 protein isolated from calf thymus (Sigma).
CDK2/Cyclin E1 […] and Histone H1 were mixed in reaction buffer. To this mixture, was added dose titrations of inhibitor compounds in 100% DMSO by acoustic transfer. The compound mixtures were incubated for 20 minutes, then the kinase reactions were initiated by the addition of a mixture of ATP and ^33P ATP for final concentrations of 10 μM total ATP, 20 μM Histone H1, and 1.5 nM CDK2/Cyclin E1 (14-475). The reactions were carried out for 120 minutes, then spotted on a P81 ion exchange filter paper, and extensively washed with 0.75% phosphoric acid. The resulting radioactive counts were normalized to yield % activity, plotted against compound concentration, and fit to a four-parameter equation to determine the IC50 for each compound.

Kuramochi cells = assay: BrdU cell proliferation assay (colorimetric ELISA), Kuramochi cells; assay type: cell-based; conditions: class symbols A-D
Outline: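 Kuramochi cells (2,000/well, with Kuramochi RB^KO cells as a specificity control) were treated with a 4-point, 3-fold dilution series made from 10 mM compound stocks and left for 4 days at 37 °C. Proliferation was measured by 1 h BrdU labelling, then anti-BrdU peroxidase ELISA read at 450 nm. Signals were background-subtracted and normalized to DMSO wells.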

CDK2/Cyclin E1(14-475) [2] = biological target: T1, CDK2/Cyclin E1(14-475); assay: Caliper LabChip EZ Reader mobility shift assay, inhibition of CDK2/Cyclin E1 activity; assay type: biochemical; conditions: class symbols A-D
Outline: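 CDK2/Cyclin E1(14-475) pre-incubated 30 min with compound and ATP, then reaction started with 5-FAM-QSPKKG-CONH2; final 2.5 nM enzyme, 100 μM ATP, 1.5 μM peptide, HEPES pH 7.5. Stopped with EDTA after 100 min; substrate/product conversion by capillary electrophoresis mobility shift, IC50 from four-parameter fit.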

Row | SMILES | IC50 (CDK2/Cyclin E1(14-475) [1]) | IC50 (CDK2/Cyclin E1(14-475) [2]) | IC50 (Kuramochi cells)
1 | CNC(=O)[C@H](Cc1ccc(O)cc1)NC(=O)C1CN(C(=O)Cc2c[nH]c3cc(Cl)ccc23)CC2CN(C(=O)c3ccc(OC(C)C)c(OC)c3)CC21 (stereo partly shown) [I-123] | 10 to 100 µM |  | 
2 | CNC(=O)[C@H](CCCc1ccccc1)NC(=O)C1CN(C(=O)Cc2c[nH]c3cc(Cl)ccc23)CC2CN(C(=O)c3cncc(OC)n3)CC21 (stereo partly shown) [I-42] | > 100 µM |  | > 10 µM
3 | CNC(=O)[C@H](CCCc1ccccc1)NC(=O)C1CN(C(=O)Cc2c[nH]c3cc(Cl)ccc23)CC2CN(C(=O)c3ccc4c(c3)OCCO4)CC21 (stereo partly shown) [I-77] | > 100 µM |  | > 10 µM
4 | CNC(=O)[C@H](CCCc1ccccc1)NC(=O)C1CN(C(=O)Cc2c[nH]c3cc(Cl)ccc23)CC2CN(C(=O)c3ccc(O)c(OC)c3)CC21 (stereo partly shown) [I-32] | > 100 µM |  | > 10 µM
5 | CCOc1cccc(C(=O)N2CC3CN(C(=O)Cc4c[nH]c5cc(Cl)ccc45)CC(C(=O)N[C@@H](CCCc4ccccc4)C(=O)NC)C3C2)c1 (stereo partly shown) [I-67] | 10 to 100 µM |  | 
6 | CNC(=O)[C@H](Cc1ccccc1)NC(=O)C1CN(C(=O)Cc2c[nH]c3cc(Cl)ccc23)CC2CN(C(=O)c3ccc(OC(C)C)c(OC)c3)CC21 (stereo partly shown) [I-122] | 10 to 100 µM |  | 
7 | CNC(=O)[C@H](CCCc1ccccc1)NC(=O)C1CN(C(=O)Cc2c[nH]c3cc(Cl)ccc23)CC2CN(C(=O)c3ccc4[nH]nnc4c3)CC21 (stereo partly shown) [I-62] | > 100 µM |  | > 10 µM
8 | CNC(=O)[C@H](CCCc1ccccc1)NC(=O)C1CN(C(=O)Cc2c[nH]c3cc(Cl)ccc23)CC2CN(C(=O)c3cnc4nccn4c3)CC21 (stereo partly shown) [I-64] | 10 to 100 µM |  | > 10 µM
9 | CNC(=O)[C@@H](C)NC(=O)C1CN(C(=O)Cc2c[nH]c3cc(Cl)ccc23)CC2CN(C(=O)c3ccc(OC(C)C)c(OC)c3)CC21 (stereo partly shown) [I-124] | > 100 µM |  | > 10 µM
10 | CNC(=O)[C@H](CCCc1ccccc1)NC(=O)C1CN(C(=O)Cc2c[nH]c3cc(Cl)ccc23)CC2CN(C(=O)c3cc(C4CC4)on3)CC21 (stereo partly shown) [I-81] | 10 to 100 µM |  | > 10 µM
11 | CNC(=O)[C@H](CCCc1ccccc1)NC(=O)C1CN(C(=O)Cc2c[nH]c3cc(Cl)ccc23)CC2CN(C(=O)c3ccc4[nH]c(C)cc4c3)CC21 (stereo partly shown) [I-2] | 10 to 100 µM |  | > 10 µM
12 | CNC(=O)[C@H](C)NC(=O)C1CN(C(=O)Cc2c[nH]c3cc(Cl)ccc23)CC2CN(C(=O)c3ccc(OC(C)C)c(OC)c3)CC21 (stereo partly shown) [I-125] | 10 to 100 µM |  | 
13 | CNC(=O)[C@H](CCCc1ccccc1)NC(=O)C1CN(C(=O)Cc2c[nH]c3cc(Cl)ccc23)CC2CN(C(=O)c3cccc(Oc4ccccc4)c3)CC21 (stereo partly shown) [I-35] | > 100 µM |  | > 10 µM
14 | CNC(=O)[C@H](CCCc1cccc(O)c1)NC(=O)C1CN(C(=O)Cc2c[nH]c3cc(Cl)ccc23)CC2CN(C(=O)c3ccc(OC(C)C)c(OC)c3)CC21 (single isomer, unassigned) [I-152] |  | > 10 µM | > 10 µM
15 | CNC(=O)[C@H](CCCc1ccccc1)NC(=O)C1CN(C(=O)Cc2c[nH]c3cc(Cl)ccc23)CC2CN(C(=O)c3ccc(C)cn3)CC21 (stereo partly shown) [I-78] |  | > 10 µM | > 10 µM
16 | CNC(=O)[C@H](CCCc1ccccc1)NC(=O)C1CN(C(=O)Cc2c[nH]c3cc(Cl)ccc23)CC2CN(C(=O)c3ccc(NC(=O)CC4CC4)c(OC)c3)CC21 (stereo partly shown) [I-69] |  | > 10 µM | > 10 µM
17 | COc1cc(C(=O)N2CC3CN(C(=O)Cc4c[nH]c5cc(Cl)ccc45)CC(C(=O)N[C@H]4CCCN(Cc5ccccc5)C4)C3C2)ccc1OC(C)C (single isomer, unassigned) [I-118] |  | > 10 µM | > 10 µM
18 | CNC(=O)[C@H](CCCc1ccccc1)NC(=O)C1CN(C(=O)Cc2c[nH]c3cc(Cl)ccc23)CC2CN(C(=O)c3ccc(OC(F)(F)F)cc3)CC21 (stereo partly shown) [I-25] |  | 0.5 to 5 µM | > 10 µM
19 | CNC(=O)[C@H](CCCc1ccccc1)NC(=O)C1CN(C(=O)Cc2c[nH]c3cc(Cl)ccc23)CC2CN(C(=O)c3ccc4nccnc4c3)CC21 (stereo partly shown) [I-17] | > 100 µM |  | > 10 µM
20 | CNC(=O)[C@H](CCCc1ccccc1)NC(=O)C1CN(C(=O)Cc2c[nH]c3cc(Cl)ccc23)CC2CN(C(=O)c3nn(C)c4ccccc34)CC21 (stereo partly shown) [I-47] |  | > 10 µM | > 10 µM
21 | CNC(=O)[C@H](CCCc1ccccc1)NC(=O)C1CN(C(=O)Cc2c[nH]c3cc(Cl)ccc23)CC2CN(C(=O)c3ccc(CC(C)C)cc3)CC21 (stereo partly shown) [I-52] |  | 5 to 10 µM | > 10 µM
22 | CNC(=O)[C@H](CCCc1ccccc1)NC(=O)C1CN(C(=O)Cc2c[nH]c3cc(Cl)ccc23)CC2CN(C(=O)c3ccccc3)CC21 (stereo partly shown) [I-50] | 1 to 10 µM |  | > 10 µM
23 | COc1cc(C(=O)N2CC3CN(C(=O)Cc4c[nH]c5cc(Cl)ccc45)CC(C(=O)N[C@@H](C)C(=O)N(C)CCCc4ccccc4)C3C2)ccc1OC(C)C (stereo partly shown) [I-103] |  | 0.5 to 5 µM | > 10 µM
24 | CNC(=O)[C@H](CCCc1ccc2[nH]nnc2c1)NC(=O)C1CN(C(=O)Cc2c[nH]c3cc(Cl)ccc23)CC2CN(C(=O)c3ccc(OC(C)C)c(OC)c3)CC21 (stereo partly shown) [I-143] |  | > 10 µM | > 10 µM
25 | COc1cc(C(=O)N2CC3CN(C(=O)Cc4c[nH]c5cc(Cl)ccc45)CC(C(=O)NC(CCCc4ccccc4)c4ccccn4)C3C2)ccc1OC(C)C (stereo not shown) [I-150] |  | 0.5 to 5 µM | 5 to 10 µM
26 | CNC(=O)[C@H](CCCc1ccccc1)NC(=O)C1CN(C(=O)Cc2c[nH]c3cc(Cl)ccc23)CC2CN(C(=O)c3cc(C)[nH]n3)CC21 (stereo partly shown) [I-56] |  | 0.5 to 5 µM | > 10 µM
27 | CNC(=O)[C@@H](CCCC1CCC(O)CC1)NC(=O)C1CN(C(=O)Cc2c[nH]c3cc(Cl)ccc23)CC2CN(C(=O)c3ccc(OC(C)C)c(OC)c3)CC21 (stereo partly shown) [I-142] |  | > 10 µM | > 10 µM
28 | COc1cc(C(=O)N2CC3CN(C(=O)Cc4c[nH]c5cc(Cl)ccc45)CC(C(=O)N[C@@H]4CCCN(Cc5ccccc5)C4)C3C2)ccc1OC(C)C (stereo partly drawn) [I-88, N—((R)-1-benzylpiperidin-3-yl)-5-(2-(6-chloro-1H-indol-3-yl)acetyl)-2-(4-isopropoxy-3-methoxybenzoyl)octahydro-1H-pyrrolo[3,4-c]pyridine-7-carboxamide] |  | > 10 µM | > 10 µM

Second part, led by results:

Row | IC50 (CDK2/Cyclin E1(14-475) [1]) | IC50 (CDK2/Cyclin E1(14-475) [2]) | SMILES | IC50 (Kuramochi cells)
29 | 1 to 10 µM |  | CNC(=O)[C@H](CCCc1ccccc1)NC(=O)C1CN(C(=O)Cc2c[nH]c3c(Cl)cccc23)CC2CN(C(=O)c3ccc(OC(C)C)c(OC)c3)CC21 (stereo partly shown) [I-222] | 
30 | > 100 µM |  | CNC(=O)[C@H](CCCc1ccccc1)NC(=O)C1CN(C(=O)Cc2c[nH]c3cccc(Cl)c23)CC2CN(C(=O)c3ccc(OC(C)C)c(OC)c3)CC21 (stereo partly shown) [I-221] | > 10 µM
31 | 1 to 10 µM |  | CNC(=O)[C@H](CCCc1ccccc1)NC(=O)C1CN(C(=O)Cc2c[nH]c3cc(OC)ccc23)CC2CN(C(=O)c3ccc(OC(C)C)c(OC)c3)CC21 (stereo partly shown) [I-235] | 
32 |  | > 10 µM | CNC(=O)[C@H](CCCc1ccccc1)NC(=O)C1CN(C(=O)Cc2cccc3[nH]ccc23)CC2CN(C(=O)c3ccc(OC(C)C)c(OC)c3)CC21 (stereo partly shown) [I-178] | > 10 µM
33 |  | > 10 µM | CNC(=O)[C@H](CCCc1ccccc1)NC(=O)C1CN(C(=O)c2cccc3[nH]ccc23)CC2CN(C(=O)c3ccc(OC(C)C)c(OC)c3)CC21 (stereo partly shown) [I-180] | > 10 µM
34 |  | > 10 µM | CNC(=O)[C@H](CCCc1ccccc1)NC(=O)C1CN(C(=O)Cc2c[nH]c3c(C)cccc23)CC2CN(C(=O)c3ccc(OC(C)C)c(OC)c3)CC21 (stereo partly shown) [I-175] | > 10 µM
35 |  | > 10 µM | CNC(=O)[C@H](CCCc1ccccc1)NC(=O)C1CN(C(=O)c2cc3cccc(C)c3[nH]2)CC2CN(C(=O)c3ccc(OC(C)C)c(OC)c3)CC21 (stereo partly shown) [I-170] | > 10 µM
36 |  | > 10 µM | CNC(=O)[C@H](CCCc1ccccc1)NC(=O)C1CN(C(=O)c2cnc(OC)cn2)CC2CN(C(=O)c3ccc(OC(C)C)c(OC)c3)CC21 (stereo partly shown) [I-163] | > 10 µM
37 |  | > 10 µM | CNC(=O)[C@H](CCCc1ccccc1)NC(=O)C1CN(C(=O)c2ocnc2C)CC2CN(C(=O)c3ccc(OC(C)C)c(OC)c3)CC21 (stereo partly shown) [I-187] | > 10 µM
38 |  | > 10 µM | CNC(=O)[C@H](CCCc1ccccc1)NC(=O)C1CN(C(=O)C(C)(C)c2c[nH]c3ccccc23)CC2CN(C(=O)c3ccc(OC(C)C)c(OC)c3)CC21 (stereo partly shown) [I-177] | > 10 µM
39 |  | ≤ 0.5 µM | CNC(=O)[C@H](CCCc1ccccc1)NC(=O)C1CN(C(=O)Cc2c[nH]c3cc(Cl)c(Cl)cc23)CC2CN(C(=O)c3ccc(OC(C)C)c(OC)c3)CC21 (stereo partly shown) [I-227] | > 10 µM
40 |  | > 10 µM | C[C@H](OCc1ccc(F)cc1)[C@@H](NC(=O)C1CN(C(=O)Cc2c[nH]c3cc(Cl)ccc23)CC2CN(C(=O)c3ccc(OC4CC4)cc3)CC21)C(N)=O (stereo partly shown) [I-245] | > 10 µM
41 |  | > 10 µM | CNC(=O)[C@H](CCCc1ccccc1)NC(=O)C1CN(C(=O)Cc2c[nH]c3ccc(Cl)cc23)CC2CN(C(=O)c3ccc(OC(C)C)c(OC)c3)CC21 (stereo partly shown) [I-220] | > 10 µM
